# Measured values from patent US7026353B2, “Inhibition of Gram positive bacteria” (Unisearch Limited, A.C.N., priority 1998, dated 2006).
# How the values were obtained:
# [1] = tested on: S. epidermidis 017; assay: Effect on the growth of ocular bacteria in TSB; assay type: cell-based; conditions: for Percentage growth compared to the control values: after 24 h, TSB; for Effect on growth curves: S. epidermidis strains, FIGS. 3 to 5
# Experimental: (§1) Strains were cultured in 5 ml of TSB with or without SUs in 35° C. water bath with agitation (120 rpm). Growth rates were monitored by reading OD660nm at time intervals of 1, 2, 3, 4, 5, 7, and 24 hours.
# [2] = tested on: S. aureus 015; assay: Effect on the growth of ocular bacteria in TSB; assay type: cell-based; conditions: for Effect on growth curves: S. aureus strains, FIGS. 3 to 5
# Experimental: as §1
# [3] = tested on: Micrococcus luteus; assay: Screening against growth in NB, microplate reader, 24 hours; assay type: cell-based; conditions: 10 μg/ml, after 24 hr
# Experimental: (§2) A screening of six different furanone compounds against growth of Staphylococcus aureus, Staphylococcus epidermidis. Streptococcus salivarius, Streptococcus pyogenes, Enterococcus faecalis and Micrococcus luteus was performed in) a BioRad 3550 Microplate Reader. Ten percent of overnight cultures were added to the growth media. NB containing furanones at the concentration 10 μg/ml. The bacteria were incubated at 37° C. and growth was measured at 595 nm for 24 hours.
# [4] = tested on: Streptococcus pyogenes; assay: as above; assay type: cell-based; conditions: 10 μg/ml, after 24 hr
# Experimental: as §2
# [5] = tested on: Streptococcus salivarius; assay: as above; assay type: cell-based; conditions: 10 μg/ml, after 24 hr
# Experimental: as §2
# [6] = tested on: Staphylococcus aureus; assay: as above; assay type: cell-based; conditions: 10 μg/ml, after 24 hr
# Experimental: as §2
# [7] = tested on: Staphylococcus epidermidis; assay: as above; assay type: cell-based; conditions: 10 μg/ml, after 24 hr
# Experimental: as §2
# [8] = tested on: Enterococcus faecalis; assay: as above; assay type: cell-based; conditions: 10 μg/ml, after 24 hr
# Experimental: as §2
# [9] = tested on: mouse fibroblast cell line L292; assay: Cytotoxicity measured as inhibition of the growth of mouse fibroblast cells; assay type: cell-based; conditions: for Lowest concentration of furanones which significantly inhibited the growth of mouse fibroblast cell line: 30% depression of growth deemed significant
# Experimental: (§3) All initial screening of six different furanones against growth of Staphylococcus aureus and Staphylococcus epidermidis was performed in a BioRad 3550 Microplate Reader. Ten percent (10%) of an overnight culture (10^8 cells/ml, resulting in final cell densities of 10^6 cells/ml) was added to the growth media. Nutrient Broth, containing furanones at the concentrations 10 and 1 μg/ml. The bacteria were incubated at 37° C. and growth was measured at […] for 9 hours. Cytotoxicity in mammalian systems was measured as inhibition of the growth of mouse fibroblast cells.
# [10] = tested on: Staphylococcus aureus; assay: Initial screening against growth in Nutrient Broth, microplate reader, 9 hours; assay type: cell-based; conditions: for % growth compared to the control value: after 9 hr
# Experimental: as §3
# [11] = tested on: Staphylococcus epidermidis; assay: as above; assay type: cell-based; conditions: for % growth compared to the control value: after 9 hr
# Experimental: as §3
# [12] = tested on: Corynebacterium 003; assay: Effect on the growth of ocular bacteria in TSB; assay type: cell-based, Corynebacterium sp; conditions: for Percentage growth compared to the control values: after 24 h, TSB
# Experimental: as §1
SMILES,% growth compared to the control value [3] [%],% growth compared to the control value [4] [%],% growth compared to the control value [5] [%],% growth compared to the control value [6] [%],% growth compared to the control value [7] [%],% growth compared to the control value [8] [%],Lowest concentration of furanones which significantly inhibited the growth of mouse fibroblast cell line [9] [µg/mL],% growth compared to the control value ([10]; 1 μg/ml) [%],% growth compared to the control value ([10]; 10 μg/ml) [%],% growth compared to the control value ([11]; 1 μg/ml) [%],% growth compared to the control value ([11]; 10 μg/ml) [%],also measured
O=C1C=C(Br)/C(=C/Br)O1 [Compound 30],86,50,73,0,62,54,20,56.6,0,72.1,62.2,"Percentage growth compared to the control values ([1]; 10 μg/ml): 91%; Effect on growth curves ([1]; 10 μg/ml): only slowed down the growth; Percentage growth compared to the control values ([2]; 10 μg/ml, after 24 h, TSB): 97%; Effect on growth curves ([2]; 10 μg/ml): only slowed down the growth; Inhibition of growth ([10]; 10 ug/ml): completely inhibiting growth; Inhibition of growth ([11]; 10 ug/ml): completely inhibiting growth; Effect on growth ([12]; 10 μg/ml): only slowed down the growth; Percentage growth compared to the control values ([12]; 10 μg/ml): 90%; Growth reached ([12]; 20 μg/ml (as printed in text), after 24 h incubation): 90%"
"CCCC(OC(C)=O)C1=C(Br)C(=CBr)OC1=O (stereo not drawn) [Compound 4, reference compound]",75,0,85,34,53,75,1,84.2,34.3,77.1,53.2,Toxicity against mammalian cell lines [9]: quite toxic
CCCCC1=C(Br)C(=CBr)OC1=O [Compound 2],86,87,86,58,53,77,150,87.9,57.9,63.7,53.2,Percentage growth compared to the control values ([1]; 100 μg/ml): 7%; Effect on growth curves ([1]; 100 μg/ml): inhibited the growth; Effect on growth curves ([2]; 100 μg/ml): inhibited the growth; Inhibition of growth ([12]; 100 μg/ml): approximately 86%; Percentage growth compared to the control values ([12]; 100 μg/ml): 14%
CCCC(F)C1=C(Br)/C(=C/Br)OC1=O (stereo not drawn) [Compound 45],100,26,69,4,22,85,–,–,–,–,–,–
